# Source: ChEMBL document CHEMBL4334464, “From Phenylthiazoles to Phenylpyrazoles: Broadening the Antibacterial Spectrum toward Carbapenem-Resistant Bacteria” (J Med Chem, 2019)
# Active and inactive are the calls of the source. The calls are words filed in the database; no cut-off is given here.
# Assays:
# Enterococcus faecalis = test: Antibacterial activity against vancomycin-resistant Enterococcus faecalis ATCC 51299 clinical isolates after 18 to 20 hrs in aerobic condition by CLSI-based broth microdilution assay; assay type: functional
# [1] = target: T1, Ditrans,polycis-undecaprenyl-diphosphate synthase ((2E,6E)-farnesyl-diphosphate specific) (Escherichia coli (strain K12)) (UniProt P60472); test: Inhibition of Escherichia coli UPPS using FPP/IPP as substrate preincubated for 30 mins followed by substrates addition and measured after 30 mins by malachite green reagent based assay
# T1 sequence (whole entry): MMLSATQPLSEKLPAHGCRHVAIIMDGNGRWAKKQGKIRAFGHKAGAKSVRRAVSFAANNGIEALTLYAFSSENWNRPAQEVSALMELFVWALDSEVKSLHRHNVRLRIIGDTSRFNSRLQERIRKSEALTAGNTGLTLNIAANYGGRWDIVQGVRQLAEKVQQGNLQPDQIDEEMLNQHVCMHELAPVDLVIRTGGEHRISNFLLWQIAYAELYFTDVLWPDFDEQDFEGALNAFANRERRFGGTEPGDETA
# Acinetobacter baumannii [2] = test: Ratio of MBC to MIC for Acinetobacter baumannii NR 17785 clinical isolates; assay type: functional
# Pseudomonas aeruginosa [3] = test: Antibacterial activity against carbapenem-resistant Pseudomonas aeruginosa ATCC 1744 clinical isolates after 18 to 20 hrs in aerobic condition by CLSI-based broth microdilution assay; assay type: functional
# Streptococcus pneumoniae [4] = test: Antibacterial activity against methicillin-resistant Streptococcus pneumoniae ATCC 700677 clinical isolates after 18 to 20 hrs by CLSI-based broth microdilution assay; assay type: functional
# Klebsiella pneumoniae [5] = test: Ratio of MBC to MIC for Klebsiella pneumoniae BAA-1706 after 18 to 20 hrs in aerobic condition by CLSI-based broth microdilution assay; assay type: functional
# Acinetobacter baumannii [6] = test: Ratio of MBC to MIC for Acinetobacter baumannii ATCC 19606 clinical isolates; assay type: functional, ATCC 19606 = CIP 70.34 = JCM 6841
# Salmonella enterica = test: Ratio of MBC to MIC for Salmonella enterica NR-170 clinical isolates; assay type: functional
# Streptococcus pneumoniae [7] = test: Ratio of MBC to MIC for cephalosporin-resistant Streptococcus pneumoniae ATCC 51916 clinical isolates; assay type: functional
# Clostridioides difficile = test: Ratio of MBC to MIC for Clostridium difficile ATCC BAA 1870; assay type: functional
# Acinetobacter baumannii [8] = test: Antibacterial activity against Acinetobacter baumannii ATCC 19606 clinical isolates after 18 to 20 hrs in aerobic condition by CLSI-based broth microdilution assay; assay type: functional; details: ATCC 19606 = CIP 70.34 = JCM 6841
# Staphylococcus aureus [9] = test: Antibacterial activity against methicillin-resistant Staphylococcus aureus NRS384-USA300 clinical isolates after 18 to 20 hrs in aerobic condition by CLSI protocol based broth microdilution assay; assay type: functional
# Staphylococcus aureus [10] = test: Antibacterial activity against Methicillin-sensitive Staphylococcus aureus ATCC 6538 clinical isolates after 18 to 20 hrs in aerobic condition by CLSI protocol based broth microdilution assay; assay type: functional
# Acinetobacter baumannii [11] = test: Ratio of MBC to MIC for Acinetobacter baumannii NR 17786 clinical isolates; assay type: functional
# Escherichia coli [12] = test: Antibacterial activity against Escherichia coli ATCC 35150 clinical isolates after 18 to 20 hrs in aerobic condition by CLSI-based broth microdilution assay; assay type: functional
# Salmonella typhimurium [13] = test: Antibacterial activity against Salmonella typhimurium ATCC 700720 after 18 to 20 hrs in aerobic condition by CLSI-based broth microdilution assay; assay type: functional, Salmonella enterica subsp. enterica serovar Typhimurium; details: Salmonella enterica
# Staphylococcus aureus [14] = test: Antibacterial activity against Methicillin-resistant Staphylococcus aureus USA700-NRS386 clinical isolates after 18 to 20 hrs in aerobic condition by CLSI protocol based broth microdilution assay; assay type: functional
# Acinetobacter baumannii [15] = test: Antibacterial activity against Acinetobacter baumannii ATCC BAA 1141 clinical isolates after 18 to 20 hrs in aerobic condition by CLSI-based broth microdilution assay; assay type: functional
# Staphylococcus aureus [16] = test: Ratio of MBC to MIC for Methicillin-sensitive Staphylococcus aureus NRS107 clinical isolates; assay type: functional
# Escherichia coli [17] = test: Inhibition of 6His tagged Escherichia coli UPPP expressed in Escherichia coli C41(DE3) cells preincubated for 15 mins followed by FPP substrate addition and measured after 20 mins by malachite green reagent based assay
# Shigella flexneri [18] = test: Ratio of MBC to MIC for Shigella flexneri ATCC 9199 clinical isolates; assay type: functional
# Listeria monocytogenes [19] = test: Antibacterial activity against Listeria monocytogenes ATCC 19111 after 18 to 20 hrs in aerobic condition by CLSI-based broth microdilution assay; assay type: functional
# Escherichia coli [20] = test: Antibacterial activity against carbapenem-resistant Escherichia coli BAA-2452 clinical isolates after 18 to 20 hrs in aerobic condition by CLSI-based broth microdilution assay; assay type: functional
# Pseudomonas aeruginosa [21] = test: Ratio of MBC to MIC for Pseudomonas aeruginosa ATCC 15442 clinical isolates; assay type: functional
# Klebsiella pneumoniae [22] = test: Ratio of MBC to MIC for Klebsiella pneumoniae BAA-1144 clinical isolates; assay type: functional
# [23] = Antibacterial activity against Enterobacter cloacae subsp. cloacae ATCC BAA-1143 clinical isolates after 18 to 20 hrs in aerobic condition by CLSI-based broth microdilution assay; assay type: functional
# Salmonella enteritidis = test: Ratio of MBC to MIC for Salmonella enteritidis ATCC 13076 clinical isolates; assay type: functional, Salmonella enterica subsp. enterica serovar Enteritidis
# Listeria monocytogenes [24] = test: Ratio of MBC to MIC for Listeria monocytogenes ATCC 19111 clinical isolates; assay type: functional
# Shigella flexneri [25] = test: Antibacterial activity against Shigella flexneri ATCC 9199 clinical isolates after 18 to 20 hrs in aerobic condition by CLSI-based broth microdilution assay; assay type: functional
# Acinetobacter baumannii [26] = test: Antibacterial activity against Acinetobacter baumannii NR 17785 clinical isolates after 18 to 20 hrs in aerobic condition by CLSI-based broth microdilution assay; assay type: functional
# Escherichia coli [27] = test: Ratio of MBC to MIC for Escherichia coli ATCC 1411 clinical isolates; assay type: functional
# Salmonella typhimurium [28] = test: Ratio of MBC to MIC for Salmonella typhimurium ATCC 700720 clinical isolates; assay type: functional, Salmonella enterica subsp. enterica serovar Typhimurium
# [29] = system: Staphylococcus epidermidis; test: Antibacterial activity against Staphylococcus epidermidis NRS101 after 18 to 20 hrs in aerobic condition by CLSI-based broth microdilution assay; assay type: functional
# Streptococcus pneumoniae [30] = test: Antibacterial activity against cephalosporin-resistant Streptococcus pneumoniae ATCC 51916 clinical isolates after 18 to 20 hrs by CLSI-based broth microdilution assay; assay type: functional
# Enterococcus faecium = test: Ratio of MBC to MIC for vancomycin-resistant Enterococcus faecium ATCC 700221 clinical isolates; assay type: functional
# Escherichia coli [31] = test: Ratio of MBC to MIC for Escherichia coli ATCC 25922 clinical isolates; assay type: functional
# Pseudomonas aeruginosa [32] = test: microbe, parasite or virus in culture; details: ATCC 25619
# Description: Antibacterial activity against Pseudomonas aeruginosa ATCC 25619 clinical isolates after 18 to 20 hrs in aerobic condition by CLSI-based broth microdilution assay
# Pseudomonas aeruginosa [33] = test: Ratio of MBC to MIC for Pseudomonas aeruginosa ATCC 9027 clinical isolates; assay type: functional
# Escherichia coli [34] = test: Antibacterial activity against carbapenem-resistant Escherichia coli BAA-2469 clinical isolates after 18 to 20 hrs in aerobic condition by CLSI-based broth microdilution assay; assay type: functional
# Staphylococcus aureus [35] = test: Ratio of MBC to MIC for Methicillin-sensitive Staphylococcus aureus ATCC 6538 clinical isolates; assay type: functional
# [36] = system: Enterobacter cloacae subsp. cloacae; test: Ratio of MBC to MIC for Enterobacter cloacae subsp. cloacae ATCC BAA-1143 clinical isolates; assay type: functional
smiles,measurement,setting,value
CCCCCC#Cc1ccc(-n2ncc(/C(C)=N/NC(=N)N)c2C)cc1,MIC,Enterococcus faecalis,2 µg/mL
same,inhibition,[1],inactive
same,Ratio,Acinetobacter baumannii [2],>=1
same,MIC,Pseudomonas aeruginosa [3],32 µg/mL
same,MIC,Streptococcus pneumoniae [4],2 µg/mL
same,Ratio,Klebsiella pneumoniae [5],>=1
same,Ratio,Acinetobacter baumannii [6],>=1
same,Ratio,Salmonella enterica,>=1
same,Ratio,Streptococcus pneumoniae [7],<3
same,Ratio,Clostridioides difficile,<3
same,MIC,Acinetobacter baumannii [8],4 µg/mL
same,MIC,Staphylococcus aureus [9],2 µg/mL
same,MIC,Staphylococcus aureus [10],2 µg/mL
same,Ratio,Acinetobacter baumannii [11],>=1
same,MIC,Escherichia coli [12],8 µg/mL
same,MIC,Salmonella typhimurium [13],8 µg/mL
same,MIC,Staphylococcus aureus [14],2 µg/mL
same,MIC,Acinetobacter baumannii [15],4 µg/mL
same,Ratio,Staphylococcus aureus [16],<=2
same,inhibition,Escherichia coli [17],inactive
same,Ratio,Shigella flexneri [18],>=1
same,MIC,Listeria monocytogenes [19],2 µg/mL
same,MIC,Escherichia coli [20],16 µg/mL
same,Ratio,Pseudomonas aeruginosa [21],>=1
same,Ratio,Klebsiella pneumoniae [22],>=1
same,MIC,[23],8 µg/mL
same,Ratio,Salmonella enteritidis,>=1
same,Ratio,Listeria monocytogenes [24],<3
same,MIC,Shigella flexneri [25],8 µg/mL
same,MIC,Acinetobacter baumannii [26],8 µg/mL
same,Ratio,Escherichia coli [27],>=1
same,Ratio,Salmonella typhimurium [28],>=1
same,MIC,[29],2 µg/mL
same,MIC,Streptococcus pneumoniae [30],2 µg/mL
same,Ratio,Enterococcus faecium,<3
same,Ratio,Escherichia coli [31],>=1
same,MIC,Pseudomonas aeruginosa [32],32 µg/mL
same,Ratio,Pseudomonas aeruginosa [33],>=1
same,MIC,Escherichia coli [34],8 µg/mL
same,Ratio,Staphylococcus aureus [35],<=2
same,Ratio,[36],> 1
C/C(=N\NC(=N)N)c1cnn(-c2ccc(C#Cc3ccccc3)cc2)c1C,MIC,Enterococcus faecalis,1 µg/mL
same,inhibition,[1],inactive
same,Ratio,Acinetobacter baumannii [2],>=1
same,MIC,Pseudomonas aeruginosa [3],16 µg/mL
same,MIC,Streptococcus pneumoniae [4],2 µg/mL
same,Ratio,Klebsiella pneumoniae [5],>=1
same,Ratio,Acinetobacter baumannii [6],>=1
same,Ratio,Salmonella enterica,>=1
same,Ratio,Streptococcus pneumoniae [7],<3
same,Ratio,Clostridioides difficile,<3
same,MIC,Acinetobacter baumannii [8],4 µg/mL
same,MIC,Staphylococcus aureus [9],1 µg/mL
same,MIC,Staphylococcus aureus [10],1 µg/mL
same,Ratio,Acinetobacter baumannii [11],>=1
same,MIC,Escherichia coli [12],8 µg/mL
same,MIC,Salmonella typhimurium [13],8 µg/mL
same,MIC,Staphylococcus aureus [14],2 µg/mL
same,MIC,Acinetobacter baumannii [15],4 µg/mL
same,Ratio,Staphylococcus aureus [16],<=2
same,inhibition,Escherichia coli [17],inactive
same,Ratio,Shigella flexneri [18],>=1
same,MIC,Listeria monocytogenes [19],2 µg/mL
same,MIC,Escherichia coli [20],8 µg/mL
same,Ratio,Pseudomonas aeruginosa [21],>=1
same,Ratio,Klebsiella pneumoniae [22],>=1
same,MIC,[23],8 µg/mL
same,Ratio,Salmonella enteritidis,>=1
same,Ratio,Listeria monocytogenes [24],<3
same,MIC,Shigella flexneri [25],8 µg/mL
same,MIC,Acinetobacter baumannii [26],4 µg/mL
same,Ratio,Escherichia coli [27],>=1
same,Ratio,Salmonella typhimurium [28],>=1
same,MIC,[29],2 µg/mL
same,MIC,Streptococcus pneumoniae [30],1 µg/mL
same,Ratio,Enterococcus faecium,<3
same,Ratio,Escherichia coli [31],>=1
same,MIC,Pseudomonas aeruginosa [32],32 µg/mL
same,Ratio,Pseudomonas aeruginosa [33],>=1
same,MIC,Escherichia coli [34],8 µg/mL
same,Ratio,Staphylococcus aureus [35],<=2
same,Ratio,[36],> 1
